Source: the supplement of paper PMC11451515

Experiments:
Assay in all cases: AUC of viability dose-response curve (% viability x log10 dose units); higher = less sensitive
Conditions in all cases: 48 h
[1] = system: NOMO1
Summary of the method: (§1)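 Leukemia cells adapted to each medium were seeded at 500 or 1000 cells/well in 1536-well plates and dosed with library compounds in DMSO at 11 threefold doses from 47 μM to 0.79 nM for 48 h at 37°C. CellTiter-Glo One luminescence was normalised per plate to DMSO and cell-free wells, then fitted with a four-parameter log-logistic model over log10 doses. Area under the curve was taken from this fit by the trapezoidal rule, with curves above full viability scaled and curves failing quality control removed.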

[2] = system: P12-Ichikawa
Summary of the method: as §1

[3] = system: SEM cells
Summary of the method: as §1

[4] = RPMI 5 mM glucose + 10% dialyzed FBS

Compound	AUC of viability dose-response curve ([1]; HPLM + 10% dialyzed FBS)	AUC of viability dose-response curve ([1]; RPMI 5 mM glucose + 10% FBS)	AUC of viability dose-response curve [1, 4]	AUC of viability dose-response curve ([2]; HPLM + 10% dialyzed FBS)	AUC of viability dose-response curve ([2]; RPMI 5 mM glucose + 10% FBS)	AUC of viability dose-response curve [2, 4]	AUC of viability dose-response curve ([3]; HPLM + 10% dialyzed FBS)	AUC of viability dose-response curve ([3]; RPMI 5 mM glucose + 10% FBS)	AUC of viability dose-response curve [3, 4]
Cc1cccc(-c2nn(C(=S)Nc3ccccc3)cc2-c2ccnc3ccccc23)n1	431	461	456	440	444	437	465	455	456
N[S+](=O)([O-])c1cc(Cl)c(Cl)c([S+](N)(=O)[O-])c1	453	445	458	448	460	473	450	446	449
CNC1[C@@H](O)C(O[C@@H]2C(O)C(O[C@H]3O[C@H]([C@@H](C)NC)CC[C@H]3N)[C@@H](N)C[C@H]2N)OC[C@]1(C)O (stereo not given in full)	446	448	415	462	444	436	459	421	472
CC(=O)O[C@@]1(CC[C@H]2[C@@H]3\C=C(C)/C4=C/C(=O)CC[C@]4(C)[C@H]3CC[C@]12C)C(C)=O	459	465	449	470	460	464	444	455	472
CO[C@H]1C[C@@H]2CC[C@@H](C)[C@@](O)(O2)C(=O)C(=O)N2CCCC[C@H]2C(=O)O[C@H]([C@H](C)C[C@@H]2CC[C@@H](OC(=O)C(C)(CO)CO)[C@H](OC)C2)CC(=O)[C@H](C)/C=C(\C)[C@@H](O)[C@@H](OC)C(=O)[C@H](C)C[C@H](C)/C=C/C=C/C=C/1C	453	435	447	427	409	418			
CC1=C(C=CC=C1)N2\C(=N/C3=C(C(=CC=C3)C)C2=O)C[N]4N=CC5=C4N=CN=C5N	329	307	341	368	366	377	469	470	471
Cc1ncc(OC[C@@]2(c3cccc(F)c3)C[C@H]2C(=O)Nc2ccc(F)cn2)c(C)n1	476	474	464	455	474	470	444	435	452
O=C1C[C@@H](c2ccc(O)cc2)Oc2cc(O)cc(O)c21	437	476	458	433	462	456	468	382	470
Clc1cc(Cl)cc(CNc2ncncc2-c2ccc3c(c2)OCO3)c1	414	412	418	431	429	450	441	437	435
O=C1Nc2ccc(Cl)cc2[C@@](C#CC2CC2)(C(F)(F)F)O1	381	364	437	430	395	378	413	389	375
NC1=NC=C(C=C1)C2=CC=C3N=CC\4=C(N(C(=O)\C=C4)C5=CC(=CC=C5)C(F)(F)F)C3=C2	191	214	194						
CC(C)[C@@H](C[S+](=O)([O-])C(C)C)N1C(=O)[C@@](C)(CC(=O)O)C[C@H](c2cccc(Cl)c2)[C@H]1c1ccc(Cl)cc1	306	357	362	278	320	335	355	289	360
CCC(=O)OCC(=O)[C@@]1(OC(=O)CC)[C@@H](C)C[C@H]2[C@@H]3CCC4=CC(=O)C=C[C@]4(C)[C@@]3(F)[C@@H](O)C[C@@]21C	360	408	391	351	335	317	426	390	372
CN(C)C(=O)c1ccc([S+](=O)([O-])c2ccc(NC(=O)[C@@](C)(O)C(F)(F)F)c(Cl)c2)cc1	411	425	451	455	448	446	472	417	444
CCOC(=O)[C@H](CCc1ccccc1)N[C@@H](C)C(=O)N1CCC[C@H]1C(=O)O	453	437	461	452	447	465	462	470	434
CCN(CC)C(=S)SSC(=S)N(CC)CC	375	365	361	366	363	362			
C[C@@H](O)[C@@H]1[C@H]2[C@@H](C)\C(=C(/N2C1=O)C(=O)OCOC(=O)C(C)(C)C)SC3CN(C3)/C4=N/CCS4	421	465	454	471	469	464	467	467	467
C[C@H]1C[C@H]2[C@@H]3CCC4=CC(=O)C=C[C@]4(C)[C@@]3(F)[C@@H](O)C[C@]2(C)[C@@]1(O)C(=O)CO	429	470	459	362	322	303	358	338	305

Compound	AUC of viability dose-response curve ([1]; HPLM + 10% dialyzed FBS)	AUC of viability dose-response curve ([1]; RPMI 5 mM glucose + 10% FBS)	AUC of viability dose-response curve [1, 4]	AUC of viability dose-response curve ([2]; HPLM + 10% dialyzed FBS)	AUC of viability dose-response curve ([2]; RPMI 5 mM glucose + 10% FBS)	AUC of viability dose-response curve [2, 4]	AUC of viability dose-response curve ([3]; HPLM + 10% dialyzed FBS)	AUC of viability dose-response curve ([3]; RPMI 5 mM glucose + 10% FBS)	AUC of viability dose-response curve [3, 4]
ClC1=CC(=CC=C1)N2CCN(CCCN3\N=C4\C=C/C=C\N4C3=O)CC2	465	453	451	453	473	468	419	446	464
CC(=O)OCC(=O)[C@@]12\N=C(C)/O[C@@H]1C[C@H]3[C@@H]4CCC/5=C/C(=O)/C=C\[C@]5(C)[C@H]4[C@@H](O)C[C@]23C	470	468	462	436	427	415	404	432	444
CC1=CC=CC=C1CN2C(=O)C/3=C(/CCN(CC4=CC=CC=C4)C3)N\5CC\N=C25	388	393	384	418	417	418	410	376	391
N=C(N)NC(=O)c1nc(Cl)c(N)nc1N	364	342	365	389	393	430	446	464	453
Cc1cc(Nc2nc(N[C@@H](C)c3ncc(F)cn3)ncc2Cl)n[nH]1	363	408	422	421	454	425	399	336	365
CC(C)(C)C(=O)OCOP(=O)(COCCn1cnc2c(N)ncnc21)OCOC(=O)C(C)(C)C	306	259	278	316	287	309	291	238	235
CC(=O)C\1=C(/C)C2=CN=C(NC3=CC=C(C=N3)N4CCNCC4)N=C2N(C5CCCC5)C1=O	424	429	406	420	400	392	357	378	365
Oc1ccc(/C=C/c2cc(O)cc(O)c2)cc1	425	457	450	462	457	444	450	417	441
COc1cc2c(Oc3ccc(NC(=O)C4(C(=O)Nc5ccc(F)cc5)CC4)cc3F)ccnc2cc1OCCCN1CCOCC1	334	343	311	291	296	299	136	149	105
COc1cc(Nc2ncc(F)c(Nc3ccc4c(n3)NC(=O)C(C)(C)O4)n2)cc(OC)c1OC	379	392	404	373	386	384			
c1cc(CN2CCCNCCNCCCNCC2)ccc1CN1CCCNCCNCCCNCC1							390	387	416
CN1CCC(CC1)COC2=CN=C(N=C2)C3=CC(=CC=C3)CN4/N=C(\C=C/C4=O)C5=CC(=CC=C5)C#N	468	464	471	472	465	464			
CC(C)(C)c1cc(C=C(C#N)C#N)cc(Br)c1O	473	471	456	453	452	452			
NC(CO)(CO)CCc1ccc(Sc2cccc(OCc3ccccc3)c2)cc1Cl	397	424	453	400	408	400			
O=C(NC[C@H](O)CN1CCc2ccccc2C1)c1cc(NC2COC2)ncn1				397	372	388			
C=CC1=C(C(=O)O)N2C(=O)[C@@H](NC(=O)/C(=N\O)c3csc(N)n3)[C@H]2SC1	467	438	462				397	435	433
CCN(CC)CCCCNc1nc2cc(Cl)c(Cl)cc2nc1-c1ccc(-c2cccs2)s1	444	454	453						
